From US8754094B2, “Methods for heat shock protein dependent cancer treatment” (The Research Foundation of State University of New York, priority 2007, dated 2014) come the findings set out here.

“Also recorded” adds a separate entry of the source. Residues, ends and D or L forms follow the SMILES beside them. *: point of attachment. Cbz = O=C(OCc1ccccc1)*

Assay type in all cases: cell-based, human
For assay [1], the system named is NCI-H929. Nature of the assay: Annexin V / PI flow cytometry apoptosis assay, NCI-H929. The note with it: for induction of apoptosis at 18 h: NCI-H929, 18 h, MAL3-101 10 μM, MG-132 0.1 μM, alone or combined. The protocol:
Each experiment was repeated at least three times. Every experimental condition was repeated at least in triplicate wells for every experiment. For cell death assays, 10^6 MM cells were exposed to media or drug for the indicated incubation periods, washed with 1× phosphate-buffered saline (PBS), pH 7.4 (Invitrogen) and resuspended in 500 μL, binding buffer (Annexin V-PI detection kit (Immunotech/Beckman Coulter, Fullerton, Calif.), containing 1 μL, annexin V-fluorescein isothiocyanate (FITC) stock and 5 μL 20 μg/mL […] (PI) to determinate the phosphatidylserine (PS) exposure on the outer plasma membrane. After incubation for 15 minutes at room temperature in the dark, the specimens were quantified by dual-color flow cytometry, acquiring 10,000 events. Cells that were Annexin V-FITC+(with translocation of phosphatidylserine from the inner to the outer leaflet of the plasma membrane) and PI− (with intact cellular membrane) were considered as early apoptotic cells.
Apoptosis induction in control (DMSO-treated) or inhibitor treated cells was determined using an Annexin-V-FLUOS Staining Kit according to the manufacturer's instructions (Roche, Indianapolis, Ind.). Briefly, cells (1×10^5) were harvested at indicated time points after treatment, and Annexin V-fluorescein isothiocyanate (FITC) and propidium iodide (PI) were added to individual samples and incubated for 30 min in a dark environment. Fluorescence was analyzed by a FACSort flow cytometer (BD Biosciences, San Jose, Calif.) by acquiring 10,000 events per sample.

The subject of assay [2] is NCI-H929. As to the kind of experiment: Cell cycle analysis by PI staining and FACS, NCI-H929. The note with it: NCI-H929, 10 μM, within 48 h of culture. As for the experimental part: Cell cycle analysis of control (DMSO-treated) or MAL3-101-treated NCI-H929 (2×10^5) was assessed by PI staining and FACS analysis of samples. Resulting DNA distributions were analyzed for the proportions of cells in G0/G1 and G2/M phases of the cell cycle after subtractive gating of cell doublets and debris as described in G. Anderson, M. Gries, N. Kurihara, T. Honjo, J. Anderson, V. Donnenberg, A. Donnenberg, I. Ghobrial, M. Y. Mapara, D. Stirling, D. Roodman, S. Lentzsch, Thalidomide derivative CC-4047 inhibits osteoclast formation by down-regulation of PU. 1, Blood 107 (2006) 3098-3105, which is incorporated herein by reference.

Assay [3] has as its system NCI-H929. As to the kind of experiment: Western immunoblotting of caspase-3 and PARP cleavage, NCI-H929. The conditions noted are these: NCI-H929, 10 μM, time course. The protocol:
Whole-cell lysates were prepared using the Mammalian Cell Lysis Kit (Sigma-Aldrich) and analyzed by Western blot analysis as described in the Zhang reference, cited supra, which is incorporated herein by reference. Equal amounts of protein were separated by SDS-PAGE and electrotransferred onto a nylon membrane. Primary antibodies to detect caspase-3 (Cell Signaling Technology, Danvers, Mass.), poly (ADP-ribose) polymerase (PARP; Abcam, Cambridge, Mass.), and β-actin (Sigma Aldrich) were used along with a HP-conjugated goat-anti-mouse polyclonal secondary antibody (BD Biosciences, Franklin Lakes, N.J.). Enhanced chemiluminescence (ECL) substrate (Pierce Biotechnology, Rockford, Ill.) was used for antibody detection.

For another assay, the system named is XBP-1 mRNA splicing. Nature of the assay: RT-PCR analysis of XBP-1 mRNA splicing (UPR) in NCI-H929. The note with it: for XBP-1 mRNA splicing at early time points: NCI-H929, early time points (4 h), concentrations that gave synergistic cytotoxicity. As for the experimental part:
Total RNA was prepared from NCI-H929 and HEK293 cells using TRIzol reagent (Invitrogen, Carlsbad, Calif.) following exposure to MAL3-101, MG-132, and 17-AAG alone and in combination at the indicated time points. Tunicamycin was used at varying concentrations.
Total RNAs were used for the first-strand synthesis with the Superscript reverse transcriptase (Invitrogen, Carlsbad, Calif.). PCR primers (5′-[…]-3′ [Seq. ID No. 1] and 5′-[…]-3′ [Seq. ID No. 2]) encompassing the missing sequences in XPB-1s were used for the PCR amplification with AmpliTaq Gold polymerase (Applied Biosystem, Foster City, Calif.) with a probe set spanning the spliced-out region. PCR products were separated by electrophoresis on a 3% agarose gel (Agarose-1000, Invitrogen) and visualized them by ethidium bromide staining to assess the degree of X-box binding protein-1 unspliced (XBP-1u, ˜280 bp) and spliced (XBP-1s, ˜265 bp) mRNA.
Unspliced (XBP-1u, 285 bp) and spliced (XBP-1s, 259 bp) XBP-1 mRNA levels of treated NCI-H929 were determined by PCR amplification of total RNA that was reverse transcribed by SuperScript Reverse Transcriptase (Invitrogen, Carlsbad, Calif.). PCR primers (5′-[…]-3′ [Seq. ID No. 1] and 5′-[…]-3′ [Seq. ID No. 2]), which flank the 26-nt intron of XBP1 mRNA, were used for PCR amplification with Ex Taq polymerase (Takara Bio, Shiga, Japan).

The subject of a further assay is U266. Nature of the assay: Growth inhibition of MM cell line U266. The note with it: U266 compared to NCI-H929. The protocol: (§1) Viability was estimated according to the following formula: […]
(§2) Control cells were cultured in DMSO.

Another assay concerns RPMI-8226. As to the kind of experiment: Growth inhibition of MM cell line RPMI-8226. The note with it: RPMI-8226 compared to NCI-H929. The protocol: as §1, §2

Consider `CCCCCCN(C(=O)CCCCCN1C(=O)NC(c2ccc(-c3ccccc3)cc2)C(C(=O)OCc2ccccc2)=C1C)C(C(=O)NCCCC)c1ccc(OCC(=O)OC)c(C(=O)OC)c1` (centres unmarked) [MAL3-101], for which, in the assay with NCI-H929 [1] (NCI-H929, 10 μM, FACS), the apoptosis over time entry was “time-dependent increase in apoptosis”. Also, the “induction of apoptosis at 18 h” value in the assay with NCI-H929 [1] is given as “neither drug alone was effective in inducing apoptosis”. In addition, in the assay with NCI-H929 [2], the “decrease in cells in the G2/M phase” value was determined as 2.5 fold and the “increase in the sub-G0/G1 phase” value was roughly 3 fold. Further, in the assay with NCI-H929 [3], the “cleavage of caspase-3 and PARP” value is “time-dependent increase in the cleavage of caspase-3 and PARP”. In the assay on XBP-1 mRNA splicing (NCI-H929, 30 μM, after 24 h of culture), the “XBP-1 mRNA splicing at high concentration” value was “minimal XBP-1 mRNA splicing occurred”. Also, the “XBP-1 mRNA splicing at early time points” value in the assay on XBP-1 mRNA splicing is reported as “there does not appear to be an effect; also recorded: no XBP-1 mRNA splicing was observed”. Moreover, in the assay with U266, the “sensitivity to MAL3-101-induced growth inhibition” value is listed as “less sensitive”. Also, in the assay on RPMI-8226, the “sensitivity to MAL3-101-induced growth inhibition” value is reported as “less sensitive”.
As for `CC(C)C[C@@H](C=O)NC(=O)[C@H](CC(C)C)NC(=O)[C@H](CC(C)C)NC(=O)OCc1ccccc1` [MG-132, reference compound] (Cbz-Leu-Leu-Leu-aldehyde), the “induction of apoptosis at 18 h” value in the assay on NCI-H929 [1] is recorded as “neither drug alone was effective in inducing apoptosis”. In addition, the “XBP-1 mRNA splicing at early time points” value in the assay with XBP-1 mRNA splicing was “no XBP-1 mRNA splicing was observed”.
